Data set [1] addresses T1, CYP2B6 (Homo sapiens, UniProt P20813).
T1 construct: purchased Becton Dickinson Biosciences (Heidelberg, Germany)
As to the kind of experiment: CYP2B6 inhibition, CYP2B6/EFC High Throughput Inhibitor Screening Kit. In kind it is in vitro ADME. Here is the method:
Inhibition studies for CYP2B6, CYP2D6, CYP2C19 and CYP3A4 were performed with the CYP2B6/EFC, CYP2D6/AMMC, the CYP2C19/CEC, and the CYP3A4/BFC High Throughput Inhibitor Screening Kit according to the manufacturer’s instructions. The kits contain the respective recombinant CYP and fluorogenic substrates, which are blocked dyes emitting a fluorescence signal when cleaved by the enzyme. For testing CYP1A2 inhibition, the P450-Glo CYP1A2 Screening System was used according to the manufacturer’s instructions. The kit contains the luminogenic CYP1A2 substrate luciferin-ME, which is converted by CYP1A2 into luciferin-generating light when incubated with the luciferin detection reagent of the kit. Eight concentrations of venetoclax in duplicates (0.009–20 µM) were tested in the fluorescence assays, and eight concentrations in triplicate (0.05–100 µM) were tested for the luminogenic assay. Each experiment was conducted in triplicate.

The test system of data set [2] is MDCKII. As to the kind of experiment: Growth inhibition assay in MDCKII cells. It counts as cell-based. The note with it: Canis lupus familiaris, MDCK-II; MDCKII parental cells. The text has this:
MDCKII cells. The transporter over-expressing cell lines MDCKII-MDR1 [5], MDCKII-MRP2 [6], and MDCKII-BCRP [7] and the corresponding parental cell line MDCKII were used to assess the sensitivity of cells with and without P-gp, multidrug resistance-associated protein 2 (MRP2/ABCC2), or BCRP expression. Moreover, MDCKII-BCRP cells were used to assess BCRP inhibition by venetoclax. MDCKII over-expressing cell lines were kindly provided by A. H. Schinkel and P. Borst (Amsterdam, The Netherlands). The parental cell line MDCKII (available at ATCC, Manassas, VA, USA) was used as a control. The cells were cultured in Dulbecco’s Modified Eagle’s Medium (DMEM) containing 10% FCS, 2 mM of glutamine, 100 U/mL of penicillin, and 100 µg/mL of streptomycin sulfate.
Growth inhibition assays in LS180 cells were conducted to determine suitable maximum concentrations for the induction assay without profound antiproliferative effects. Proliferation was quantified by crystal violet staining of the surviving cells as described previously. Each experiment was performed at least in triplicate with n = 8 wells for each concentration (0.1–100 µM). The IC20 for proliferation inhibition by venetoclax was 8.4 ± 1.0 µM; thus, the maximum concentration for the induction assay was set to 10 µM, ensuring that about 80% of the cells will survive. […]

Data set [3] can be described thus: Growth inhibition assay in MDCKII-BCRP cells. It counts as cell-based. Particulars: dog, MDCKII-BCRP cells (BCRP over-expressing). Here is the method: MDCKII cells. […] Moreover, MDCKII-BCRP cells were used to assess BCRP inhibition by venetoclax. MDCKII over-expressing cell lines were kindly provided by A. H. Schinkel and P. Borst (Amsterdam, The Netherlands). The parental cell line MDCKII (available at ATCC, Manassas, VA, USA) was used as a control. The cells were cultured in Dulbecco’s Modified Eagle’s Medium (DMEM) containing 10% FCS, 2 mM of glutamine, 100 U/mL of penicillin, and 100 µg/mL of streptomycin sulfate. Growth inhibition assays in LS180 cells were conducted to determine suitable maximum concentrations for the induction assay without profound antiproliferative effects. Proliferation was quantified by crystal violet staining of the surviving cells as described previously. […] Growth inhibition assays in MDCKII, and their MRP2 or BCRP over-expressing counterparts ([…], MDCKII-BCRP) and in LLC-PK1 and the corresponding P-gp over-expressing cell line L-MDR1 were conducted to evaluate whether venetoclax sustains its efficacy in MDR cell lines.

Data set [4] concerns UGT1A9. As to the kind of experiment: Induction assay, UGT1A9 mRNA by real-time RT-PCR in LS180 cells. In kind it is in vitro ADME, human. The note with it: four days, 10 µM. Here is the method:
LS180 cells. The human colon adenocarcinoma cell line LS180 (available at ATCC, Manassas, VA, USA) is one of the standard models for investigating pregnane X receptor (PXR) and aryl hydrocarbon receptor (AhR) mediated induction and was thus used for induction experiments. Cells were cultured under standard cell culture conditions with DMEM supplemented with 10% FCS, 2 mM of glutamine, 100 U/mL of penicillin, 100 µg/mL of streptomycin sulfate, and 0.1 mM of nonessential amino acids.
For the induction experiments, LS180 cells were seeded in 75 cm^2 culturing flasks and incubated for three days. […]
RNA was isolated using the GenElute™ Mammalian Total RNA Miniprep Kit, and cDNA was synthesized with the RevertAid™ H Minus First Strand cDNA Synthesis Kit according to the manufacturer's instructions. mRNA expression was quantified by real-time RT-PCR with the LightCycler® 480 (Roche Applied Science, Mannheim, Germany) as described previously. […] Data were evaluated via calibrator-normalized relative quantification with efficiency correction using the LightCycler® 480 software version 1.5 (Roche Applied Science, Mannheim, Germany). […] The following target genes were quantified: CYP1A1, CYP1A2, CYP3A4, ABCB1, ABCC2, ABCG2, SLCO1B1 (coding for OATP1B1), UDP-glucuronosyltransferase 1A3 (UGT1A3), and UGT1A9.
Background: Quantitative PCR measures a nucleic acid by following its amplification.

Data set [5] deals with T2, AhR.
T2 construct: endogenous in cells; host or cells: AZ-AHR (HepG2 with stably integrated AhR-responsive luciferase reporter; gift of Z. Dvorak)
As to the kind of experiment: AhR reporter gene assay in AZ-AHR cells. It counts as cell-based, human. Particulars: 24 h, up to 10 µM. The protocol: AZ-AHR cells. The human hepatoma cell line HepG2 stably transfected with a construct containing several AhR binding sites upstream of luciferase reporter gene was used to investigate whether venetoclax can activate AhR. Cells were kindly provided by Z. Dvorak (Palacky University, Olomouc, Czech Republic).
To test whether the induction of CYP1A1 or UGTs can be attributed to AhR activation by venetoclax, an AhR reporter gene assay was applied. 60,000 AZ-AhR cells were seeded into each well of 96-well plates with clear bottom and clear lid for luminometry. After incubation for 24 h, cells were treated in triplicate with venetoclax (0.1–10 µM) or vehicle control (0.2% DMSO) for a further 24 h. The assay was performed with the Steady-Glo™ Luciferase Assay System according to the manufacturer’s instructions. Drug-induced increases of AhR receptor activity were normalized to activity of non-drug treated controls, which was set to 1 (= 100%). The experiment was performed in triplicate.

1 compound from PMC4810081, “Venetoclax (ABT-199) Might Act as a Perpetrator in Pharmacokinetic Drug–Drug Interactions” (Pharmaceutics, 2016) can be followed below.

By IC50 is commonly meant the concentration at which inhibition is half-maximal.

T1 sequence (P20813 whole entry): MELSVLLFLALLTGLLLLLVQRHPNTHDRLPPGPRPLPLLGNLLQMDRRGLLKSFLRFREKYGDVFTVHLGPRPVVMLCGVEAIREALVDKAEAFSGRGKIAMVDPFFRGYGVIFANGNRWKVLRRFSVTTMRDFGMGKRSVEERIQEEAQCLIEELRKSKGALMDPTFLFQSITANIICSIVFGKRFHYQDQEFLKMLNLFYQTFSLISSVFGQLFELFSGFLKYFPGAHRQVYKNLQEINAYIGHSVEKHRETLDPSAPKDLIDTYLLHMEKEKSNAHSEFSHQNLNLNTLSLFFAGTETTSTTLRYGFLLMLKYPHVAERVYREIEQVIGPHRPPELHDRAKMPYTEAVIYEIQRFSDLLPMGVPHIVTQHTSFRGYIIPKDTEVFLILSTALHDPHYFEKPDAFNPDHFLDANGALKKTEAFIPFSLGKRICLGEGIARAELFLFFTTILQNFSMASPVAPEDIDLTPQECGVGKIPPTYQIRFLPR

As for `CC1(C)CCC(CN2CCN(c3ccc(C(=O)NS(=O)(=O)c4ccc(NCC5CCOCC5)c([N+](=O)[O-])c4)c(Oc4cnc5[nH]ccc5c4)c3)CC2)=C(c2ccc(Cl)cc2)C1` [Venetoclax], the “increase of CYP2B6 activity” value in data set [1] (at 20 µM) amounted to 1.7 fold. The “IC50 CYP2B6 inhibition” value in data set [1] (recombinant CYP, fluorogenic substrate, 0.009–20 µM tested) is reported as “activation”. In addition, the IC50 in data set [2] was found to be 15.2 ± 2.4 µM; in data set [3] it was 15.7 ± 0.4 µM. Moreover, the “mRNA expression of UGT1A9” value in data set [4] is “induced”. Besides, in data set [5], the “luciferase activity in the AhR reporter gene assay” value is “did not increase”.
